Laboratory results as given in ChEMBL document CHEMBL1201862, “PubChem BioAssay data set” (2004).
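Test compounds were applied to cells in 96-well plates for 48 hours at 5 doses. The concentration for 50% growth inhibition is given as GI50.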 The source made the active and inactive calls. Cut-off read from the data, not from the text of the source: active = GI50 up to about 1.1 µM and inactive = higher.

Key:
Test in all cases: NCI anticancer screen, dose series, 48 h
[1] = test system: A498
[2] = test system: A549
[3] = test system: ACHN
[4] = test system: COLO 205
[5] = test system: HCT-116
[6] = test system: HOP-62
[7] = test system: Malme-3M
[8] = test system: OVCAR-3
[9] = test system: OVCAR-4
[10] = test system: RXF 393
[11] = test system: SF-539
[12] = test system: SN12C
[13] = test system: SR
[14] = test system: UACC-257
[15] = test system: UO-31
[16] = test system: KM12
[17] = test system: MDA-MB-435
[18] = test system: SK-OV-3
[19] = test system: T47D
[20] = test system: Hs-578T

Compound | GI50 [1] | GI50 [2] | GI50 [3] | GI50 [4] | GI50 [5] | GI50 [6] | GI50 [7] | GI50 [8] | GI50 [9] | GI50 [10] | GI50 [11] | GI50 [12] | GI50 [13] | GI50 [14] | GI50 [15] | GI50 [16] | GI50 [17] | GI50 [18] | GI50 [19] | GI50 [20]
c1ccc2c(c1)[nH]c1c[nH]c3c4cccnc4nc-3c12 | 33.3 µM (inactive) | 20 µM (inactive) | 11.3 µM (inactive) | 15 µM (inactive) | 17.1 µM (inactive) | 29.9 µM (inactive) | 25.6 µM (inactive) | 17.1 µM (inactive) | 18.2 µM (inactive) | 18.7 µM (inactive) | 21.4 µM (inactive) | 18.6 µM (inactive) | 17.7 µM (inactive) | 23.9 µM (inactive) | 15.3 µM (inactive) | – | – | – | – | –
N#Cc1c(-c2ccccc2)c(/C=N/c2ccc(F)cc2)c(=O)n2c1[nH]c1ccccc12 | 29.4 µM (inactive) | 19.7 µM (inactive) | 18.5 µM (inactive) | 29.8 µM (inactive) | 14.7 µM (inactive) | 2.95 µM (inactive) | 23.6 µM (inactive) | 19.7 µM (inactive) | 40.6 µM (inactive) | 22.5 µM (inactive) | 30.2 µM (inactive) | 22.4 µM (inactive) | – | 28.5 µM (inactive) | 16.2 µM (inactive) | 29.6 µM (inactive) | 18.4 µM (inactive) | 36.3 µM (inactive) | 27.7 µM (inactive) | –
CC(C)N(CCn1c2c3ccccc3ccc2c2oc(=O)c3ccccc3c21)C(C)C | > 100 µM (inactive) | > 100 µM (inactive) | > 100 µM (inactive) | > 100 µM (inactive) | > 100 µM (inactive) | > 23.1 µM (inactive) | > 100 µM (inactive) | > 100 µM (inactive) | > 100 µM (inactive) | > 100 µM (inactive) | > 43.3 µM (inactive) | > 100 µM (inactive) | > 100 µM (inactive) | > 54.8 µM (inactive) | > 100 µM (inactive) | > 100 µM (inactive) | – | > 100 µM (inactive) | – | –
O=C1NC(=O)/C(=C\c2ccncc2)N1 | – | > 100 µM (inactive) | > 100 µM (inactive) | > 100 µM (inactive) | > 100 µM (inactive) | > 100 µM (inactive) | – | > 100 µM (inactive) | > 100 µM (inactive) | – | > 100 µM (inactive) | > 100 µM (inactive) | – | > 100 µM (inactive) | > 100 µM (inactive) | > 100 µM (inactive) | > 100 µM (inactive) | > 100 µM (inactive) | > 100 µM (inactive) | –
Oc1ccc2c(c1)c1c(n2CCN2CCOCC2)-c2ccccc2CC1 | 20.2 µM (inactive) | – | 28.2 µM (inactive) | – | 37.2 µM (inactive) | 24.7 µM (inactive) | 19.6 µM (inactive) | 22 µM (inactive) | – | 29.6 µM (inactive) | 21.3 µM (inactive) | 41.8 µM (inactive) | 24.8 µM (inactive) | 32.9 µM (inactive) | 23.6 µM (inactive) | 17.8 µM (inactive) | > 10 µM (inactive) | 42.2 µM (inactive) | – | 20.6 µM (inactive)
Nc1ccccc1-n1c2c(c3ccccc3c1=O)C(=O)c1ccccc1-2 | 54.5 µM (inactive) | 11.5 µM (inactive) | 5.53 µM (inactive) | 26.1 µM (inactive) | 20.8 µM (inactive) | 7.14 µM (inactive) | 16.3 µM (inactive) | 21.8 µM (inactive) | 4.11 µM (inactive) | – | 3.13 µM (inactive) | 42 µM (inactive) | – | 35.9 µM (inactive) | 11.1 µM (inactive) | 71.6 µM (inactive) | 57.9 µM (inactive) | 6.98 µM (inactive) | – | –
CC1(C)c2ccccc2N2C(c3ccccc3)=NOC21C (configuration not stated) | > 100 µM (inactive) | > 100 µM (inactive) | > 100 µM (inactive) | > 100 µM (inactive) | > 100 µM (inactive) | > 100 µM (inactive) | > 100 µM (inactive) | > 100 µM (inactive) | > 100 µM (inactive) | > 100 µM (inactive) | > 100 µM (inactive) | > 100 µM (inactive) | > 100 µM (inactive) | > 100 µM (inactive) | > 100 µM (inactive) | > 100 µM (inactive) | – | > 100 µM (inactive) | – | –
COc1ccc(Nc2nc3c([nH]2)c(=O)n(C)c(=O)n3C)cc1 | – | > 10 µM (inactive) | – | > 10 µM (inactive) | – | > 10 µM (inactive) | > 10 µM (inactive) | – | > 10 µM (inactive) | > 10 µM (inactive) | – | > 10 µM (inactive) | > 10 µM (inactive) | > 10 µM (inactive) | – | > 10 µM (inactive) | > 10 µM (inactive) | > 10 µM (inactive) | > 10 µM (inactive) | –
BrC(c1cccc2ccccc12)c1cccc2ccccc12 | 17.6 µM (inactive) | 26.4 µM (inactive) | 21.9 µM (inactive) | – | 6.61 µM (inactive) | 14.1 µM (inactive) | 4.94 µM (inactive) | 11.9 µM (inactive) | 17 µM (inactive) | 13.6 µM (inactive) | – | 14.3 µM (inactive) | > 100 µM (inactive) | 19.2 µM (inactive) | 26.8 µM (inactive) | 15.5 µM (inactive) | 7.23 µM (inactive) | – | 29.4 µM (inactive) | –
Nc1cnc2c(c1)c(=O)nc1n2CCS1 | > 100 µM (inactive) | > 100 µM (inactive) | > 100 µM (inactive) | > 100 µM (inactive) | > 100 µM (inactive) | > 100 µM (inactive) | > 100 µM (inactive) | > 100 µM (inactive) | > 100 µM (inactive) | > 100 µM (inactive) | > 100 µM (inactive) | > 100 µM (inactive) | – | > 100 µM (inactive) | 64 µM (inactive) | 55.1 µM (inactive) | > 100 µM (inactive) | > 100 µM (inactive) | – | –
O=C(O)CCC(NC(=O)c1ccc(CNc2nc3cc(C(F)(F)F)ccc3nc2C(=O)O)cc1)C(=O)O (configuration not stated) | > 100 µM (inactive) | > 100 µM (inactive) | > 100 µM (inactive) | > 100 µM (inactive) | > 100 µM (inactive) | > 100 µM (inactive) | > 100 µM (inactive) | > 100 µM (inactive) | > 100 µM (inactive) | > 100 µM (inactive) | > 100 µM (inactive) | – | > 100 µM (inactive) | > 100 µM (inactive) | > 100 µM (inactive) | > 100 µM (inactive) | > 100 µM (inactive) | > 100 µM (inactive) | > 100 µM (inactive) | –
CC(=O)O[C@H]1C(=O)[C@@]2(C)C([C@H](OC(=O)c3ccccc3)[C@]3(O)C[C@H](OC(=O)[C@H](O)[C@H](NC(=O)c4ccccc4)c4ccc(Cl)cc4)C(C)=C1C3(C)C)C1(OC(C)=O)CO[C@@H]1C[C@@H]2O (some centres not stated) | 0.0256 µM (active) | 0.000678 µM (active) | 0.261 µM (active) | 0.00188 µM (active) | 0.000113 µM (active) | 0.00839 µM (active) | 0.00239 µM (active) | 0.00222 µM (active) | 0.889 µM (active) | 0.0149 µM (active) | 0.000367 µM (active) | 0.000841 µM (active) | 0.000119 µM (active) | 0.00425 µM (active) | 0.733 µM (active) | 0.000282 µM (active) | – | 0.00163 µM (active) | – | –
Cc1cc(Cl)ccc1NC(=O)C1C(=O)N(c2ccc(Cl)cc2C)C(=O)/C1=N\N (configuration not stated) | 28.3 µM (inactive) | 34.4 µM (inactive) | 34.1 µM (inactive) | 56.4 µM (inactive) | 30.5 µM (inactive) | 40.7 µM (inactive) | 71.8 µM (inactive) | 30.8 µM (inactive) | 83.2 µM (inactive) | > 100 µM (inactive) | 44.6 µM (inactive) | 36.6 µM (inactive) | 26.6 µM (inactive) | > 100 µM (inactive) | 33 µM (inactive) | 25.4 µM (inactive) | – | 97.5 µM (inactive) | – | –
COC(=O)[C@H]1C=C[C@@H](C)n2c(=O)c3cc4ccccc4cc3c(=O)n21 | > 100 µM (inactive) | > 100 µM (inactive) | > 100 µM (inactive) | > 100 µM (inactive) | > 100 µM (inactive) | > 100 µM (inactive) | > 100 µM (inactive) | > 100 µM (inactive) | – | > 100 µM (inactive) | > 100 µM (inactive) | > 100 µM (inactive) | > 100 µM (inactive) | > 100 µM (inactive) | > 100 µM (inactive) | > 100 µM (inactive) | – | > 100 µM (inactive) | – | –
CCCCCc1cc2cc3c(c(O)c2c(=O)[nH]1)C1(CCC3)C(=O)c2c(O)ccc(O)c2C1=O | > 100 µM (inactive) | > 100 µM (inactive) | > 100 µM (inactive) | > 100 µM (inactive) | > 100 µM (inactive) | 83.9 µM (inactive) | > 100 µM (inactive) | > 100 µM (inactive) | 88.5 µM (inactive) | 43 µM (inactive) | > 100 µM (inactive) | > 100 µM (inactive) | > 100 µM (inactive) | > 100 µM (inactive) | > 100 µM (inactive) | > 100 µM (inactive) | > 100 µM (inactive) | – | – | > 100 µM (inactive)
CC(CCc1ccc2c(c1)c(N)c1ccc(N)cc1[n+]2[O-])CC(C)(C)C (configuration not stated) | 1.89 µM (inactive) | 1.63 µM (inactive) | 1.73 µM (inactive) | 1.45 µM (inactive) | 1.93 µM (inactive) | 1.83 µM (inactive) | 1.87 µM (inactive) | 1.73 µM (inactive) | 2.05 µM (inactive) | 2 µM (inactive) | 1.93 µM (inactive) | 1.79 µM (inactive) | 1.62 µM (inactive) | 1.99 µM (inactive) | 8.95 µM (inactive) | 1.99 µM (inactive) | – | – | – | –
